Assay results reported in PubChem BioAssay (NCI).
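Cells were grown in 96-well plates and exposed to each compound for 48 hours at five concentrations; endpoints were interpolated linearly between bracketing concentrations, or set to the highest concentration if not reached. TGI denotes the concentration required for complete inhibition of growth.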

How the values were obtained:
Assay in all cases: growth of human tumour cells (NCI), 48 h
[1] = tested on: DLD-1 colon
[2] = tested on: KM20L2 colon
[3] = tested on: SNB-78 CNS
[4] = tested on: DMS 273 small cell lung
[5] = tested on: HOP-18 NSCLC
[6] = tested on: DMS 114 small cell lung
[7] = tested on: LXFL 529 NSCLC
[8] = tested on: XF 498 CNS
[9] = tested on: RXF-631 renal

SMILES	TGI [1] [µM]	TGI [2] [µM]	TGI [3] [µM]	TGI [4] [µM]	TGI [5] [µM]	TGI [6] [µM]	TGI [7] [µM]	TGI [8] [µM]	TGI [9] [µM]
CC(C)N1CN(C(C(=O)N[C@@H]2C(=O)N3C2SC(C)(C)C3C(=O)O)c2ccc(O)cc2)CSC1=S (stereo partly specified)	> 100	> 100	> 100	> 100	> 100	> 100	> 100	> 100	–
COc1ccc2[nH]cc(CCNC(=O)[C@](O)(Cc3cn(C)c4ccccc34)[C@@]3(O)OCC(O)C3O)c2c1 (stereo partly specified)	> 100	> 100	–	> 100	> 100	> 100	> 100	> 100	> 100
CC(=O)c1cccc(NC(=O)C(=O)Nn2c(N)nnc2N)c1	> 100	> 100	> 100	> 100	> 100	> 100	> 100	> 100	–
COc1c(C)cc2c(c1O)C1NC(C2)[C@H](O)N2C3COC(=O)[C@@]4(CS[C@@H](c5c(OC(C)=O)c(C)c6c(c53)OCO6)C12)NCCC1=C4NC2C=CC=CC12 (stereo partly specified)	0.0498	< 0.01	–	< 0.01	–	< 0.01	0.0117	–	0.167
CCOP(=O)(OCC)C(C(=O)OC)C(=O)C(=O)Nc1c(C)cc(Br)cc1C (stereo unspecified)	> 100	> 100	> 100	> 100	> 100	> 100	> 100	> 100	> 100
CN1Cc2cc3c(cc2-c2ccccc21)OCO3	> 100	> 100	> 100	> 100	> 100	–	> 100	> 100	–
Brc1cc2c(cc1C1SCCS1)OCO2	> 100	> 100	> 100	> 100	> 100	> 100	> 100	–	> 100
O=[N+]([O-])c1c(C=Nc2ccccc2)oc(-c2ccc3c(c2)OCO3)c1-c1ccc2c(c1)OCO2	> 100	> 100	> 100	> 100	–	> 100	> 100	> 100	> 100
CN(Cc1ccccc1)C(=NC#N)N(C)Cc1ccccc1	> 100	> 100	> 100	> 100	–	–	> 100	–	–
Cc1ccc(C(=O)OCC(C)C)cc1N=NN(C)C	> 100	> 100	> 100	> 100	–	–	> 100	–	–
COc1cc(/C=C2\C(=O)N(C(=O)c3ccc(NC(C)=O)cc3)N=C2C)ccc1O	> 100	–	> 100	> 100	> 100	> 100	–	–	–
COc1ccc(C=C(c2ccc(OCc3ccccc3)cc2)c2ccc(OCc3ccccc3)cc2)cc1	> 100	> 100	> 100	> 100	> 100	> 100	> 100	> 100	> 100
O=C1C2CN(Cc3ccccc3)CC1CN(CC1CC1)C2	–	> 100	–	> 100	> 100	> 100	> 100	> 100	–
COc1ccccc1/C=C1\CCC(CCN2CCOCC2)C1=O (stereo unspecified)	> 100	> 100	> 100	> 100	> 100	> 100	> 100	> 100	> 100
